PubChem BioAssay (NCI)
Values joined by “and” are separate entries in the source; they are usually repeats but may differ in a detail not shown here. Equal values may be shown once.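 Each compound was tested at five concentrations against cells in 96-well plates for 48 hours. GI50: concentration for 50% inhibition of growth. At the TGI there is no net growth.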

Key:
Experiment in all cases: inhibition of tumour cell growth, NCI panel, 48 h
786-0 renal = test system: 786-0 renal
ACHN renal = test system: ACHN renal
NCI/ADR-RES ovarian = test system: NCI/ADR-RES ovarian
SK-MEL-28 melanoma = test system: SK-MEL-28 melanoma
SF-268 CNS = test system: SF-268 CNS
MOLT-4 leukemia = test system: MOLT-4 leukemia
HS 578T breast = test system: HS 578T breast
SK-MEL-2 melanoma = test system: SK-MEL-2 melanoma
T-47D breast = test system: T-47D breast
EKVX NSCLC = test system: EKVX NSCLC

| Structure (SMILES) | GI50 (786-0 renal) [µM] | TGI (786-0 renal) | GI50 (ACHN renal) [µM] | TGI (ACHN renal) [µM] | GI50 (NCI/ADR-RES ovarian) [µM] | TGI (NCI/ADR-RES ovarian) | GI50 (SK-MEL-28 melanoma) [µM] | TGI (SK-MEL-28 melanoma) | GI50 (SF-268 CNS) [µM] | TGI (SF-268 CNS) [µM] | GI50 (MOLT-4 leukemia) [µM] | TGI (MOLT-4 leukemia) [µM] | GI50 (HS 578T breast) [µM] | TGI (HS 578T breast) | GI50 (SK-MEL-2 melanoma) [µM] | TGI (SK-MEL-2 melanoma) | GI50 (T-47D breast) [µM] | TGI (T-47D breast) | TGI (EKVX NSCLC) [µM] | GI50 (EKVX NSCLC) [µM] |
| --- | --- | --- | --- | --- | --- | --- | --- | --- | --- | --- | --- | --- | --- | --- | --- | --- | --- | --- | --- | --- |
| CCCCCCc1nc2nc(Cl)c(Cl)nc2[nH]1 | > 100 | > 100 µM | 6.94 | > 100 | 6.92 | > 100 µM | > 100 | > 100 µM | > 100 | > 100 | 5.21 | > 100 | > 100 | > 100 µM | 5.58 | > 100 µM | 2.68 | > 100 µM | – | – |
| N#C/C(=C/Sc1ccccc1)C(=O)O | – | 77.9 µM | – | > 100 | – | – | – | > 100 µM | – | 53.7 | – | > 100 | – | – | – | 72.3 µM | – | – | > 100 | – |
| S=c1nc(Cl)cc2[nH]c(Cl)cn12 | – | > 100 µM | – | > 100 | – | 6.89 µM | – | > 100 µM | – | > 100 | – | – | – | 6.34 µM | – | > 100 µM | – | > 100 µM | 7.41 | – |
| COc1cccc2c1c(C1=C(c3cn(C)c4ccccc34)C(=O)NC1=O)cn2C | > 25 | > 25 µM | > 25 | > 25 | > 25 | > 25 µM | > 25 | > 25 µM | > 25 | > 25 | > 25 | > 25 | > 25 | > 25 µM | > 25 | > 25 µM | > 25 | > 25 µM | – | – |
| O=C(NCc1ccco1)c1ccc(NC2=C(Cl)C(=O)N(Cc3ccccc3)C2=O)cc1 | 12.6 | 28.2 µM | – | – | 18.3 | 39.5 µM | 19.9 | 43.4 µM | 17.8 | 54.1 | 14.7 | 38 | 43.3 | > 100 µM | 23.8 | 55.8 µM | 41 | > 100 µM | 72.5 | 31.2 |
| COC(=O)c1ccc(Cl)cc1NC(=O)C1CCCCC1 | – | > 100 µM | – | > 100 | – | – | – | > 100 µM | – | > 100 | – | > 100 | – | – | – | > 100 µM | – | – | > 100 | – |
| C=CN(C)S(C)(=O)=O | > 100 | > 100 µM | > 100 | > 100 | > 100 | > 100 µM | > 100 | > 100 µM | > 100 | > 100 | > 100 | > 100 | > 100 | > 100 µM | > 100 | > 100 µM | > 100 | > 100 µM | – | – |
| CN(C)CCOC(c1ccccc1)c1ccccc1 | 35.1 | 49.8 µM and > 100 µM | – | > 100 | 33.1 | 48.9 µM and > 100 µM | 18.1 | 35.3 µM and > 100 µM | – | – | – | > 100 | 32.2 | 51.3 µM and > 100 µM | 35.5 | 51.6 µM and > 100 µM | 31.4 | 57.2 µM and > 100 µM | > 100 | – |
